Experimental data taken from PMC10186300 (Scientific Reports, 2023).
Values joined by “and” are separate entries in the source; they are usually repeats but may differ in a detail not shown here. Equal entries are not always repeated. Residues, ends and D or L forms follow the SMILES beside them. *: point of attachment. Dansyl = CN(C)c1cccc2c(S(=O)(=O)*)cccc12

Legend:
PDZ2 domain of ZO1 [1] = molecular target: T1, PDZ2 domain of ZO1 (Homo sapiens, UniProt Q07157, F207W); experiment: biochemical; assay type: binding; details: pH 7
PDZ2 domain of ZO1 [2] = molecular target: T1, PDZ2 domain of ZO1; experiment: biochemical; assay type: binding

T1 sequence (Q07157 186-264 F207W limits assumed): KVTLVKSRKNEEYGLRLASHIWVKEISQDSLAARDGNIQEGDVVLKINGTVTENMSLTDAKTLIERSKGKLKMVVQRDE

Compound	koff (PDZ2 domain of ZO1 [1])	Kd (PDZ2 domain of ZO1 [2])	change in fluorescence upon binding (negative control) (PDZ2 domain of ZO1 [2]; pH 7)
CC(C)C[C@H](NC(=O)[C@H](CC(=O)O)NC(=O)[C@@H]1CCCN1C(=O)[C@@H](NC(=O)[C@H](CCCNC(=N)N)NC(=O)[C@H](CO)NC(=O)[C@H](CO)NC(=O)[C@H](CC(N)=O)NS(=O)(=O)c1cccc2c(N(C)C)cccc12)C(C)C)C(=O)N[C@@H](CC(C)C)C(=O)N[C@H](C(=O)O)C(C)C [SARS-CoV-2 E peptide] (Dansyl-NSSRVPDLLV-OH)	9.5 s⁻¹ and 8.7 ± 0.2 s⁻¹ and 6.8 ± 0.1 s⁻¹ and 9.1 ± 0.2 s⁻¹	15.8 µM and 17.4 µM and 15.2 µM	
ENVGLMQQQK [reference compound]			no change in fluorescence upon binding
CC(C)C[C@H](NC(=O)[C@@H]1CCCN1C(=O)[C@@H]1CCCN1C(=O)[C@H](CCCCN)NC(=O)[C@H](CO)NS(=O)(=O)c1cccc2c(N(C)C)cccc12)C(=O)N1CCC[C@H]1C(=O)N1CCC[C@H]1C(=O)N[C@@H](CC(=O)O)C(=O)N[C@@H](CCC(=O)O)C(=O)N[C@@H](Cc1c[nH]c2ccccc12)C(=O)N[C@H](C(=O)O)C(C)C [MERS-CoV E peptide] (Dansyl-SKPPLPPDEWV-OH)	154 ± 3 s⁻¹	14 ± 1 µM	
CC(C)C[C@H](NC(=O)[C@H](CC(=O)O)NC(=O)[C@@H]1CCCN1C(=O)[C@@H](NC(=O)CNC(=O)[C@H](CCC(=O)O)NC(=O)[C@H](CO)NC(=O)[C@H](CO)NC(=O)[C@H](CC(N)=O)NS(=O)(=O)c1cccc2c(N(C)C)cccc12)C(C)C)C(=O)N[C@@H](CC(C)C)C(=O)N[C@H](C(=O)O)C(C)C [SARS-CoV E peptide] (Dansyl-NSSEGVPDLLV-OH)	9 s⁻¹ and 7.0 ± 0.1 s⁻¹ and 6.9 ± 0.1 s⁻¹ and 6.2 ± 0.1 s⁻¹	4.7 µM and 5 µM and 8.6 µM	
